Laboratory results: PMC11259170, “Small-molecule probe for IBD risk variant GPR65 I231L alters cytokine signaling networks through positive allosteric modulation” (Science Advances, 2024)
Read-outs that look alike come from different tables or passages of the source.

Key:
hGPR65 I231L-SmBiT = target: T1, hGPR65 I231L-SmBiT (Homo sapiens, UniProt Q8IYL9, I231L); test: Nano-BiT target engagement, LgBiT-mGs recruitment to hGPR65 I231L-SmBiT; assay type: cell-based; conditions: 10 μM
T1 construct: expressed in transfected cells; host or cells: Expi293F (Gibco), transient transfection
T1 sequence (Q8IYL9 whole entry I231L): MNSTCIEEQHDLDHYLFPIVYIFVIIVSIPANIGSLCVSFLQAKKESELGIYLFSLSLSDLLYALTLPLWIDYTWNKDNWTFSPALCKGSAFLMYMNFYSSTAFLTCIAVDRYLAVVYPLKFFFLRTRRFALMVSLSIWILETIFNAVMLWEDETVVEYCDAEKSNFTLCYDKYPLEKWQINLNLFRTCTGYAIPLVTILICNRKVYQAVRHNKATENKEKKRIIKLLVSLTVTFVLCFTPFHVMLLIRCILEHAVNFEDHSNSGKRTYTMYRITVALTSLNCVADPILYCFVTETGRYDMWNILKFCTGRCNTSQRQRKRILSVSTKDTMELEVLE
Method: Target engagement was measured in Expi293F (Gibco, 100044202) cells using the Nano-Glo Live Cell Assay System (Promega, N2011). Nano-BiT plasmids were cloned from GPR65-, GPR4-, and GPR68-Tango plasmids. GPR65-Tango (Addgene plasmid # 66370; http://n2t.net/addgene:66370; RRID:Addgene_66370), GPR4-Tango (Addgene plasmid # 66358; http://n2t.net/addgene:66358; RRID:Addgene_66358), and GPR68-Tango (Addgene plasmid # 66371; http://n2t.net/addgene:66371; RRID:Addgene_66371) were gifts from Bryan Roth. Expi293F cells were transfected 1 day before kinetics with 500 ng of each plasmid using ExpiFectamine 293 Transfection Kit (Gibco, A14525). After 24 hours, cells were collected, washed, and resuspended in room temperature 0.1% PBS-BSA, adjusted to pH 7.4 using 1 M NaOH. Cells were transferred to white opaque 96-well microplates (100 μl per well, PerkinElmer, 6005290), followed by addition of the Nano-Glo Live Cell Reagent (25 μl per well). Baseline luminescence was measured for 10 cycles (1 cycle = 90 s) before adding compounds. All luminescence measurements were made on BMG Labtech PHERAstar FSX. Data analysis was performed using GraphPad Prism.

Lipophilicity (logD) = assay type: physicochemical
mGPR65 = target: T2, mGPR65 (Mus musculus, UniProt Q61038); test: cAMP detection, GPR65 KO HeLa reconstituted with mGPR65; assay type: cell-based; conditions: 0 to 50 μM, pH 7.2
T2 construct: expressed in transfected cells; host or cells: HeLa (ATCC CCL-2), lentiviral transduction, pLX317
T2 sequence (Q61038 whole entry): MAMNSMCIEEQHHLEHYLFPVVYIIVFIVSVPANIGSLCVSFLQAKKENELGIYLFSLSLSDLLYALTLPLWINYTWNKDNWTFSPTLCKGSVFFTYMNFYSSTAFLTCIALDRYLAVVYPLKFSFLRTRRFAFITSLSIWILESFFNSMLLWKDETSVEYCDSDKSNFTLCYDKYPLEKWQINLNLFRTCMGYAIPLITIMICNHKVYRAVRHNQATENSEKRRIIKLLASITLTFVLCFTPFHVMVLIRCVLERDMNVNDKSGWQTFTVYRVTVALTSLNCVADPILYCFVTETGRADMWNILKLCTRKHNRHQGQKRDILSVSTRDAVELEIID
Method: The Lance Ultra cAMP Kit (PerkinElmer, TRF0264) was used for cAMP detection, and included the following reagents: ULight anti-cAMP antibody, Eu-cAMP tracer, 7.5% BSA Stabilizer solution, and cAMP detection buffer. Stimulation buffer was prepared as described by the kit manufacturer as follows: Hanks buffered saline solution (HBSS, Life Technologies, 14025-126) containing 0.5 mM IBMX (3-isobutyl-1-methylxanthine, Sigma-Aldrich, I7018) and buffered with 1 M Hepes (15630-080). […] HeLa cells were lifted using Versene and then suspended at 2.5 × 10^5 cells/ml in stimulation buffer. Cells were then plated at 20 μl per well (5000 cells per well) in white, opaque OptiPlate 384-well MicroPlates (PerkinElmer, 6007299) using a Thermo Fisher Scientific Combi liquid dispenser. […] Eu-cAMP tracer and Förster resonance energy transfer (FRET) emissions were then read using a PerkinElmer EnVision Multimode plate reader (ENVISION21040010), exciting each well at 320 nm [UV2 (TRF) 320 filter] and reading emissions at 615 nm (Europium 615 filter) and 665 nm (APC665 filter). […]

[1] = system: GFP-expressing HeLa cells; test: cAMP detection in HeLa expression cell line, GFP control; assay type: cell-based, human; conditions: Homo sapiens, HeLa, 1st GFP column pair, NA = no activity
How it was run: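 TR-FRET cAMP read-out (Lance Ultra; ex 337 nm, em 620 and 665 nm) after 1 h detection in the dark, following a 30 min RT stimulation of 1500 cells per well in pH 7.2 stimulation buffer with compound supplied as 10 mM DMSO stock. Cells: lentivirally transduced HeLa lines carrying V5-tagged GPCR or GFP, kept under 3 μg/ml puromycin.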

Cc1ccc(NC(=O)c2cnn3c(O)cc(-c4ccc(COC(C)C)cc4)nc23)nc1 [BRD5075, O=C(NC1=NC=C(C)C=C1)C2=C3N(N=C2)C(O)=CC(C4=CC=C(COC(C)C)C=C4)=N3]
G protein recruitment in cells expressing hGPR65 I231L (hGPR65 I231L-SmBiT): able to recruit G protein
logD (Lipophilicity (logD); pH 7.4, pH7.4, read-out: LogD (pH7.4)): 3.57
logD (Lipophilicity (logD); read-out: lipophilicity (logD)): 3.57

CN1N=C(SCc2ccc(Cl)cc2Cl)Sc2c1cnn(C)c2=O [BTB09089, reference compound]
cAMP response, BTB09089 compared with BRD2813 (mGPR65): more effective
EC50 [1]: 194 nM
Emax ([1]; relative to 100uM forskolin (100%) and DMSO (0%), read-out: GFP Max Activity %): 1.95%
